From PubChem BioAssay AID1845219 (Molecular Pharmacology Branch, DTP, NCI, 2023)
Values joined by “and” are separate entries in the source; they are usually repeats but may differ in a detail not shown here. Equal entries are not always repeated.

Test system: SYO-1 tumor spheroids, viability % test/control
Experiment: Anticancer human tumor SYO-1 cell line growth inhibition;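 also: spheroids exposed to agents for 7 days before viability read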;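 as to viability, T/C: 100% = DMSO vehicle control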
Settings: spheroids with HUVEC and MSC; for viability, T/C: stronger effect = lower value; active = viability on the fitted dose curve at most 10% of control; inactive = the rest
Outline: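 Complex spheroids of malignant cells with endothelial cells and mesenchymal stem cells; agents alone or combined, from near clinical Cmax (or 10 microM if unknown) down in half-log steps, 0.25% DMSO final.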

[1] = curve of first compound, second compound 0.003 µM
[2] = second compound 0.003 µM, first compound 0.00949 µM
[3] = second compound 0.003 µM, first compound 0.03 µM
[4] = second compound 0.003 µM, first compound 0.0949 µM
[5] = second compound 0.003 µM, first compound 0.3 µM
[6] = second compound 0.003 µM, first compound 0.949 µM
[7] = second compound 0.003 µM, first compound 3 µM

Cn1ncnc1[C@H]1c2n[nH]c(=O)c3cc(F)cc(c23)N[C@@H]1c1ccc(F)cc1 + CC[C@@]1(O)C(=O)OCc2c1cc1n(c2=O)Cc2cc3c(CN(C)C)c(O)ccc3nc2-1
active: viability, T/C [2] 3.29% | viability, T/C [3] 2.24% | viability, T/C [4] 1.89% | viability, T/C [5] 1.63% | viability, T/C [6] 1.45% | viability, T/C [7] 1.47% | viability, T/C (second compound 0.00949 µM, first compound 0.00949 µM) 1.7% | viability, T/C (second compound 0.00949 µM, first compound 0.03 µM) 1.69% | viability, T/C (second compound 0.00949 µM, first compound 0.0949 µM) 1.68% | viability, T/C (second compound 0.00949 µM, first compound 0.3 µM) 1.41% | viability, T/C (second compound 0.00949 µM, first compound 0.949 µM) 1.63% | viability, T/C (second compound 0.00949 µM, first compound 3 µM) 1.37% | viability, T/C (second compound 0.03 µM, first compound 0.00949 µM) 1.69% | viability, T/C (second compound 0.03 µM, first compound 0.03 µM) 1.49% | viability, T/C (second compound 0.03 µM, first compound 0.0949 µM) 1.7% | viability, T/C (second compound 0.03 µM, first compound 0.3 µM) 1.53% | viability, T/C (second compound 0.03 µM, first compound 0.949 µM) 1.32% | viability, T/C (second compound 0.03 µM, first compound 3 µM) 1.28% | viability, T/C (second compound 0.0949 µM, first compound 0.00949 µM) 1.59% | viability, T/C (second compound 0.0949 µM, first compound 0.03 µM) 1.89% | viability, T/C (second compound 0.0949 µM, first compound 0.0949 µM) 1.72% | viability, T/C (second compound 0.0949 µM, first compound 0.3 µM) 1.66% | viability, T/C (second compound 0.0949 µM, first compound 0.949 µM) 1.34% | viability, T/C (second compound 0.0949 µM, first compound 3 µM) 1.13% | viability, T/C (second compound 0.3 µM, first compound 0.00949 µM) 1.71% | viability, T/C (second compound 0.3 µM, first compound 0.03 µM) 1.64% | viability, T/C (second compound 0.3 µM, first compound 0.0949 µM) 1.52% | viability, T/C (second compound 0.3 µM, first compound 0.3 µM) 1.37% | viability, T/C (second compound 0.3 µM, first compound 0.949 µM) 1.3% | viability, T/C (second compound 0.3 µM, first compound 3 µM) 1.04%
< 9.49 nM: IC50 [1] | IC50 (curve of first compound, second compound 0.00949 µM) | IC50 (curve of first compound, second compound 0.03 µM) | IC50 (curve of first compound, second compound 0.0949 µM) | IC50 (curve of first compound, second compound 0.3 µM)

Cn1ncnc1[C@H]1c2n[nH]c(=O)c3cc(F)cc(c23)N[C@@H]1c1ccc(F)cc1
active: viability, T/C (compound 0.0949 µM) 4.75% and 5.28% and 5.09% | viability, T/C (compound 0.3 µM) 2.61% and 2.85% and 2.82% | viability, T/C (compound 0.949 µM) 1.54% and 2.38% and 1.48% | viability, T/C (compound 3 µM) 1.36% and 1.92% and 1.26%
19 nM and 17.4 nM and 17.7 nM: IC50 (curve of compound)
inactive: viability, T/C (compound 0.00949 µM) 81.1% and 79.7% and 87.3% | viability, T/C (compound 0.03 µM) 29.5% and 23.3% and 18.3%

CNCc1ccc(-c2cc(-c3nc(-c4ccc(S(=O)(=O)C(C)C)cc4)cnc3N)on2)cc1 + COc1cc2c(cc1O)CCNC21CSC2c3c(OC(C)=O)c(C)c4c(c3C(COC1=O)N1C(O)C3Cc5cc(C)c(OC)c(O)c5C(C21)N3C)OCO4
49.1 nM: IC50 (curve of first compound, second compound 94.9 pM)
134 nM: IC50 (curve of first compound, second compound 30 pM)
active: viability, T/C (second compound 30 pM, first compound 0.3 µM) 2.18% | viability, T/C (second compound 30 pM, first compound 0.949 µM) 0.23% | viability, T/C (second compound 30 pM, first compound 3 µM) 0.08% | viability, T/C (second compound 94.9 pM, first compound 0.0949 µM) 4.65% | viability, T/C (second compound 94.9 pM, first compound 0.3 µM) 1.24% | viability, T/C (second compound 94.9 pM, first compound 0.949 µM) 0.12% | viability, T/C (second compound 94.9 pM, first compound 3 µM) 0.07% | viability, T/C (second compound 0.0003 µM, first compound 0.03 µM) 3.94% | viability, T/C (second compound 0.0003 µM, first compound 0.0949 µM) 2.02% | viability, T/C (second compound 0.0003 µM, first compound 0.3 µM) 0.82% | viability, T/C (second compound 0.0003 µM, first compound 0.949 µM) 0.12% | viability, T/C (second compound 0.0003 µM, first compound 3 µM) 0.09% | viability, T/C (second compound 0.000949 µM, first compound 0.00949 µM) 1.37% | viability, T/C (second compound 0.000949 µM, first compound 0.03 µM) 1.54% | viability, T/C (second compound 0.000949 µM, first compound 0.0949 µM) 1.43% | viability, T/C (second compound 0.000949 µM, first compound 0.3 µM) 0.42% | viability, T/C (second compound 0.000949 µM, first compound 0.949 µM) 0.09% | viability, T/C (second compound 0.000949 µM, first compound 3 µM) 0.1% | viability, T/C [2] 0.12% | viability, T/C [3] 0.12% | viability, T/C [4] 0.1% | viability, T/C [5] 0.11% | viability, T/C [6] 0.19% | viability, T/C [7] 0.18%
inactive: viability, T/C (second compound 30 pM, first compound 0.00949 µM) 100% | viability, T/C (second compound 30 pM, first compound 0.03 µM) 94.2% | viability, T/C (second compound 30 pM, first compound 0.0949 µM) 70.5% | viability, T/C (second compound 94.9 pM, first compound 0.00949 µM) 98.6% | viability, T/C (second compound 94.9 pM, first compound 0.03 µM) 84% | viability, T/C (second compound 0.0003 µM, first compound 0.00949 µM) 11.1%
< 9.49 nM: IC50 (curve of first compound, second compound 0.0003 µM) | IC50 (curve of first compound, second compound 0.000949 µM) | IC50 [1]
